Measurements from patent US6972296B2, “Carboxylic acid derivatives that inhibit the binding of integrins to their receptors” (Encysive Pharmaceuticals Inc., priority 1999, dated 2005).
Blank lines part the entries; values can stand above or below the compound they belong to.

Target: T1, α4β1 integrin (Homo sapiens, UniProt P05556+P13612)
T1 construct: endogenous in cells; host or cells: Ramos cells
Experiment: Adhesion of calcein-labeled Ramos cells to CS1 (fibronectin) peptide conjugated ovalbumin
Type: cell-based
Details: Ramos cell adhesion to CS1 conjugated ovalbumin
Procedure, shortened: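 Plates bearing CS1 fibronectin peptide coupled to ovalbumin (0.5 μg/ml coat, 3% BSA block) received calcein-labelled Ramos cells plus compound (100 μM stated) for 30 min at 37 °C. Buffer was TBS pH 7.5 with 1 mM Mg2+, Ca2+, Mn2+; bound cells quantified by fluorescence after lysis; […].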

[1] = Table 5, dose required to give 50% inhibition
[2] = Table 7, dose required to give 50% inhibition

T1 sequence (P13612 34-1032): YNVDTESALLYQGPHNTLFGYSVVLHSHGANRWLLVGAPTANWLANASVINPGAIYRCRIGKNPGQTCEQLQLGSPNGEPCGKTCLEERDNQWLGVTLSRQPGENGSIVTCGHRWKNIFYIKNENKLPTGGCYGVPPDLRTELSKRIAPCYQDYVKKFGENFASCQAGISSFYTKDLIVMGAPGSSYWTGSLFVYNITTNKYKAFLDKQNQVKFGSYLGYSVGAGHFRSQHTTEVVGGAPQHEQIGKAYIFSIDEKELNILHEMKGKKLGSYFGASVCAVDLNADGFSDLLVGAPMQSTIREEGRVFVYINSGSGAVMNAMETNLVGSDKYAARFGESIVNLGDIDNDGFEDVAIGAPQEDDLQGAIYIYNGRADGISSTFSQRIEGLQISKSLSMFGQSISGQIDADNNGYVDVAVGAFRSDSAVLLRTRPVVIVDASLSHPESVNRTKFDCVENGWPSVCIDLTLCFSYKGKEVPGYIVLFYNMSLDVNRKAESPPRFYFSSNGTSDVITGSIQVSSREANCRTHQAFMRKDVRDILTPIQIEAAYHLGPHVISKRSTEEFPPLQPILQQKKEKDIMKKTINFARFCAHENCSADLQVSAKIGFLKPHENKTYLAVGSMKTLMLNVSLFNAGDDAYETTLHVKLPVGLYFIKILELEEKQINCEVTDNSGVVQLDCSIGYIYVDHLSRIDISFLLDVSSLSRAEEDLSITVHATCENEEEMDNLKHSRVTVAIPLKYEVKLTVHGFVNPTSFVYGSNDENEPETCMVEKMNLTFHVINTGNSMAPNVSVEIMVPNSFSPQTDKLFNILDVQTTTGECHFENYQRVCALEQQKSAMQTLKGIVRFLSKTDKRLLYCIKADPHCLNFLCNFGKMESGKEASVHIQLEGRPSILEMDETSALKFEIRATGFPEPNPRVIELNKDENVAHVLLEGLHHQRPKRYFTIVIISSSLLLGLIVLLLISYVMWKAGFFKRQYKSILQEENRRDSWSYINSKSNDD
T1 sequence (P05556 21-798): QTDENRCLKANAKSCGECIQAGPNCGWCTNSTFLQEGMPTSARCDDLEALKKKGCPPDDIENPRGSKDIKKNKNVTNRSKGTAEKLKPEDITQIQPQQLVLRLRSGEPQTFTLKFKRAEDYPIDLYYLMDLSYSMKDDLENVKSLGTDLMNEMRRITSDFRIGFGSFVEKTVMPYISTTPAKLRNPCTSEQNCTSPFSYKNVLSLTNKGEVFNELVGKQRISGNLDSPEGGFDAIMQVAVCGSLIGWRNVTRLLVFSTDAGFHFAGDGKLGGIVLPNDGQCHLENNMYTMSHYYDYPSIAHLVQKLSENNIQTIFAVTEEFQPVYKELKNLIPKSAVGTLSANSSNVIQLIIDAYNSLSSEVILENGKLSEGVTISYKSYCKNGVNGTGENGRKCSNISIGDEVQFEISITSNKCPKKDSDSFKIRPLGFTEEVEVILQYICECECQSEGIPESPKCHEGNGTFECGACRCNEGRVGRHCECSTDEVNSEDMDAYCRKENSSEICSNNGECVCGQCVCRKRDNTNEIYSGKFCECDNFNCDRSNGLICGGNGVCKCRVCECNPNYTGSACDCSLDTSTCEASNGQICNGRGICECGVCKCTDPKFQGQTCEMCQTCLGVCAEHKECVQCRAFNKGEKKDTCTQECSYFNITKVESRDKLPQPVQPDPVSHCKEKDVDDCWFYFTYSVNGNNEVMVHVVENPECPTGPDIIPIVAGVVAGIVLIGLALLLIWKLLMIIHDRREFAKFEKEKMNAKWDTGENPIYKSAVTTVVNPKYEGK

IC50 [1]: > 10000 nM
Compound: Cc1ccc(N(CC(=O)O)NC(=O)Nc2c(O)ccn(Cc3ccccc3Cl)c2=O)cc1

IC50 [2]: 15 nM
Compound: COc1ccccc1-c1cccc([C@H](CC(=O)O)NC(=O)Nc2c(O)c(C)cn(Cc3ccccc3Cl)c2=O)c1

IC50 [1]: 13 nM
Compound: Cc1ccc([C@H](CC(=O)O)NC(=O)Nc2c(O)ccn(Cc3c(Cl)cccc3Cl)c2=O)cc1

IC50 [2]: 10 nM
Compound: Cc1cn(Cc2ccccc2Cl)c(=O)c(NC(=O)N[C@@H](CC(=O)O)c2ccccc2F)c1O

IC50 (Table 4, 30 minutes at 37° C.): 100 nM
Compound: Cc1ccc([C@H](CC(=O)O)NC(=O)Nc2cccn(Cc3c(F)cccc3Cl)c2=O)cc1

IC50 (Table 4, 30 minutes at 37° C.): 50000 nM
Compound: O=C(O)C[C@H](NC(=O)Nc1cccc(Oc2ccccc2)c1)c1ccc2c(c1)OCO2

IC50 [2]: 3 nM
Compound: CCOc1cccc(Cl)c1Cn1cc(C)c(O)c(NC(=O)N[C@@H](CC(=O)O)c2ccc3c(ccn3C)c2)c1=O [(3S)-3-[({[1-(2-chloro-6-ethoxybenzyl)-4-hydroxy-5-methyl-2-oxo-1,2-dihydropyridin-3-yl]amino}carbonyl)amino]-3-(1-methyl-1H-indol-5-yl)propanoic acid]

IC50 (Table 6, 30 minutes at 37° C.): 150 nM
Compound: O=C(O)C[C@H](NC(=O)Nc1c(O)ccn(Cc2ccccc2Cl)c1=O)c1ccccn1

IC50 [2]: 22 nM
Compound: Cc1cn(Cc2ccccc2Cl)c(=O)c(NC(=O)N[C@@H](CC(=O)O)c2cnc3ccccc3c2)c1O

IC50 [1]: 25 nM
Compound: Cc1ccc(C(CC(=O)O)NC(=O)Nc2c(O)ccn(Cc3ccccc3Cl)c2=O)o1 (stereo not drawn)

IC50 (Table 3, 30 minutes at 37° C.): 3 nM
Compound: COc1cc(OC)cc([C@H](CC(=O)O)NC(=O)Nc2c(O)ccn(Cc3ccccc3Cl)c2=O)c1 [(3S)-3-[3,5-bis(methyloxy)phenyl]-3-{[({1-[(2-chlorophenyl)methyl]-4-hydroxy-2-oxo-1,2-dihydro-3-pyridinyl}amino)carbonyl]amino}propanoic acid]

IC50 [1]: 3 nM
Compound: COc1cc([C@H](CC(=O)O)NC(=O)Nc2c(O)ccn(Cc3ccccc3Cl)c2=O)ccc1C [(3S)-3-[({[1-(2-chlorobenzyl)-4-hydroxy-2-oxo-1,2-dihydropyridin-3-yl]amino}carbonyl)amino]-3-(3-methoxy-4-methylphenyl)propanoic acid]

IC50 [2]: 5 nM
Compound: CCOc1cccc(Cl)c1Cn1c(C)c(CC)c(O)c(NC(=O)N[C@@H](CC(=O)O)c2cccc(OC(C)C)c2)c1=O

IC50 [1]: 20 nM
Compound: O=C(O)CC(NC(=O)Nc1c(O)ccn(Cc2ccccc2Cl)c1=O)c1ccc2ccccc2c1 (stereo not drawn) [3-[({[1-(2-chlorobenzyl)-4-hydroxy-2-oxo-1,2-dihydropyridin-3-yl]amino}carbonyl)amino]-3-(2-naphthyl)propanoic acid]

IC50 (Table 3, 30 minutes at 37° C.): 30 nM | IC50 (Table 4, 30 minutes at 37° C.): 30 nM
Compound: O=C(O)CC(NC(=O)Nc1c(O)ccn(Cc2ccccc2Cl)c1=O)c1ccc(Cl)cc1 (stereo not drawn)

IC50 [1]: 350 nM
Compound: O=C(O)C[C@@H](Cc1cccc(C(F)(F)F)c1)NC(=O)Nc1c(O)ccn(Cc2ccccc2Cl)c1=O

IC50 [2]: 40 nM
Compound: Cc1ccc(-c2ccc([C@H](CC(=O)O)NC(=O)Nc3c(O)ccn(Cc4ccccc4Cl)c3=O)cc2)cc1

IC50 [2]: 6 nM
Compound: CCOc1cccc(Cl)c1Cn1c2c(c(O)c(NC(=O)N[C@@H](CC(=O)O)c3cccc(OC4CCCC4)c3)c1=O)CCC2

IC50 (Table 6, 30 minutes at 37° C.): 4 nM
Compound: CCOc1ccc([C@H](CC(=O)O)NC(=O)Nc2c(O)c3ccccc3n(Cc3ccccc3Cl)c2=O)cc1OCC

IC50 (Table 4, 30 minutes at 37° C.): 40 nM
Compound: O=C(O)C[C@H](NC(=O)Nc1cccn(Cc2ccccc2Cl)c1=O)c1ccc2c(c1)CCO2

IC50 [2]: 13 nM
Compound: O=C(O)C[C@H](NC(=O)Nc1c(O)c2c(n(Cc3ccccc3Cl)c1=O)CCC2)c1ccc(OC(F)F)cc1

IC50 [2]: 3 nM
Compound: CCOc1cccc(Cl)c1Cn1cc(C)c(O)c(NC(=O)N[C@@H](CC(=O)O)c2ccc3ccn(C)c3c2)c1=O [(3S)-3-[({[1-(2-chloro-6-ethoxybenzyl)-4-hydroxy-5-methyl-2-oxo-1,2-dihydropyridin-3-yl]amino}carbonyl)amino]-3-(1-methyl-1H-indol-6-yl)propanoic acid]

IC50 (Table 4, 30 minutes at 37° C.): 700 nM
Compound: COc1cc(OC)cc([C@H](CC(=O)O)NC(=O)Nc2cccn(Cc3cccs3)c2=O)c1

IC50 (Table 4, 30 minutes at 37° C.): 20 nM
Compound: CCOc1ccc([C@H](CC(=O)O)NC(=O)Nc2c(O)ccn(Cc3ccccc3Cl)c2=O)cc1

IC50 [2]: 22 nM
Compound: O=C(O)C[C@H](NC(=O)Nc1c(O)c2c(n(Cc3ccccc3Cl)c1=O)CCC2)c1cnc2ccccc2c1

IC50 (Table 3, 30 minutes at 37° C.): 20 nM
Compound: COc1cc([C@H](CC(=O)O)NC(=O)Nc2c(O)ccn(Cc3ccccc3Cl)c2=O)cc(OC)c1OC

IC50 (Table 4, 30 minutes at 37° C.): 6000 nM
Compound: COc1cccc(OC)c1[C@H](CC(=O)O)NC(=O)Nc1cccn(Cc2ccccc2Cl)c1=O

IC50 (Table 6, 30 minutes at 37° C.): 14 nM
Compound: COc1cc([C@H](CC(=O)O)NC(=O)Nc2c(O)c3ccccc3n(Cc3ccccc3Cl)c2=O)ccc1C

IC50 (Table 4, 30 minutes at 37° C.): 300 nM
Compound: Cc1ccc([C@H](CC(=O)O)NC(=O)Nc2cccn(Cc3c(F)cccc3F)c2=O)cc1

IC50 [1]: 45 nM
Compound: Cc1ccc([C@H](CC(=O)O)NC(=O)Nc2c(O)ccn(Cc3cccc(OC(F)(F)F)c3)c2=O)cc1

IC50 (Table 4, 30 minutes at 37° C.): 2500 nM
Compound: Cc1ccc([C@H](CC(=O)O)NC(=O)Nc2cccn(Cc3c(C)cc(C)cc3C)c2=O)cc1

IC50 (Table 6, 30 minutes at 37° C.): 15 nM
Compound: CCCc1cn(Cc2c(Cl)cccc2OC)c(=O)c(NC(=O)N[C@@H](CC(=O)O)c2ccc(C)cc2)c1O

IC50 [2]: 3 nM
Compound: CCOc1cccc(Cl)c1Cn1cc(C2CC2)c(O)c(NC(=O)N[C@@H](CC(=O)O)c2ccc(C)cc2)c1=O [(3S)-3-[({[1-(2-chloro-6-ethoxybenzyl)-5-cyclopropyl-4-hydroxy-2-oxo-1,2-dihydropyridin-3-yl]amino}carbonyl)amino]-3-(4-methylphenyl)propanoic acid]

IC50 [1]: 20 nM
Compound: Cc1ccc([C@H](CC(=O)O)NC(=O)Nc2c(O)c(C)cn(Cc3ccc(S(C)(=O)=O)cc3)c2=O)cc1

IC50 [2]: 9 nM
Compound: O=C(O)C[C@H](NC(=O)Nc1c(O)c2c(n(Cc3ccccc3Cl)c1=O)CCC2)c1cccc(OCC2CC2)c1 [(3S)-3-[({[1-(2-chlorobenzyl)-4-hydroxy-2-oxo-2,5,6,7-tetrahydro-1H-cyclopenta[b]pyridin-3-yl]amino}carbonyl)amino]-3-[3-(cyclopropylmethoxy)phenyl]propanoic acid]

IC50 (Table 4, 30 minutes at 37° C.): > 10000 nM
Compound: Cc1ccc([C@H](CC(=O)O)NC(=O)Nc2cccn(CC(=O)Nc3ccccc3O)c2=O)cc1

IC50 (Table 2, 30 minutes at 37° C.): 0.3 nM
Compound: Cc1ccccc1NC(=O)Nc1ccc(CN2CCC[C@H](NC(=O)N[C@@H](CC(=O)O)c3ccc4c(c3)OCO4)C2=O)cc1

IC50 [1]: 4 nM
Compound: Cc1ccc([C@H](CC(=O)O)NC(=O)Nc2c(Nc3ccc(C(=O)O)cc3)ccn(Cc3ccccc3Cl)c2=O)cc1 [4-{[3-[({[(1S)-2-carboxy-1-(4-methylphenyl)ethyl]amino}carbonyl)amino]-1-(2-chlorobenzyl)-2-oxo-1,2-dihydropyridin-4-yl]amino}benzoic acid]

IC50 (Table 3, 30 minutes at 37° C.): 20 nM
Compound: COc1ccn(Cc2ccccc2Cl)c(=O)c1NC(=O)N[C@@H](CC(=O)O)c1ccc(C)cc1

IC50 [2]: 17 nM
Compound: CC(C)c1ccc([C@H](CC(=O)O)NC(=O)Nc2c(O)c3c(n(Cc4ccccc4Cl)c2=O)CCC3)cc1

IC50 [1]: 22 nM
Compound: Cc1ccc([C@H](CC(=O)O)NC(=O)Nc2c(O)ccn(Cc3ccc(F)cc3)c2=O)cc1

IC50 (Table 6, 30 minutes at 37° C.): 4 nM
Compound: CCOc1cccc(Cl)c1Cn1cc(C)c(O)c(NC(=O)N[C@@H](CC(=O)O)c2cccc(OC(C)C)c2)c1=O [(3S)-3-[({[1-(2-chloro-6-ethoxybenzyl)-4-hydroxy-5-methyl-2-oxo-1,2-dihydropyridin-3-yl]amino}carbonyl)amino]-3-(3-isopropoxyphenyl)propanoic acid]

IC50 [1]: 20 nM
Compound: COc1ccc(Cn2ccc(O)c(NC(=O)N[C@@H](CC(=O)O)c3ccc(C)cc3)c2=O)cc1

IC50 [2]: 23 nM
Compound: Cc1cccc(Cl)c1Cn1c2c(c(O)c(NC(=O)N[C@@H](CC(=O)O)c3ccc(Cl)c(OC(C)C)c3)c1=O)CCC2
